Assay type: physicochemical
Conditions: pH 7.4

N[C@@H](Cc1c[nH]c2ccccc12)C(=O)O [L-Trp, L-tryptophan]
Solubility in the assay buffer: low solubility

— publication PMC11785791, “Cryo-EM structure of the calcium-sensing receptor complexed with the kokumi substance γ-glutamyl-valyl-glycine” (Scientific Reports, 2025)
